{"source": "patent US11478477B2", "about": "“Method for treating cancer by combination of FAK/ALK/ROS1 inhibitor and EGFR inhibitor” (ASCENTAGE PHARMA (SUZHOU) CO., LTD., priority 2018, dated 2022)", "key": {"[1]": {"system": "human NCI-H1975 xenograft tumor model", "experiment": "Example 9: Compound 5 with AZD9291 or Avitinib in xenograft tumor model", "format": "in vivo, mouse", "details": "Compound 5 50 mg/kg, AZD9291 2 mg/kg, Avitinib 10 mg/kg, orally, once per day", "from_the_text": "(§1) The dosage regimen was as follows:"}, "[2]": {"system": "human NCI-H1975 lung cancer mouse xenograft tumor model", "experiment": "Example 4: Compound 5 with AZD9291 or afatinib in xenograft tumor model", "format": "in vivo", "details": "for RTV on Day 15 after administration (mean ± standard error) / T/C on Day 15 after administration (%): Compound 5 100 mg/kg, AZD9291 5 then 2 mg/kg, afatinib 10 then 5 mg/kg, orally, once per day", "from_the_text": "Subsequently, a H1975 cell-derived mouse xenograft tumor model was established to evaluate the anti-tumor effects of Compound 5 in combination with EGFR inhibitor AZD9291 (osimertinib) or afatinib."}, "[3]": {"system": "human NCI-H1975 xenograft tumor model", "experiment": "Example 8: Compound 5 or Ensartinib with Avitinib in xenograft tumor model", "format": "in vivo, mouse", "details": "Compound 5 50 mg/kg; Ensartinib 20 mg/kg; Avitinib 10 mg/kg; orally, once per day, 21 days", "from_the_text": "as §1"}, "NCI-H1975 tumor cells": {"system": "NCI-H1975 tumor cells", "experiment": "WST (CCK-8) anti-proliferation experiment, single drugs and combinations", "format": "cell-based", "details": "Homo sapiens, NCI-H1975, 72 hours", "procedure": "Cell plating: Anti-proliferative effects were detected by a CCK-8 (Cell Counting Kit-8) assay based on water soluble tetrazolium salt (WST). The cells were seeded in 96-well plates, and only 95 μL of complete medium was added to each negative control group. 95 μL of complete medium cell suspension was added to each well to be tested, and the cell density was […]. Dosing (protection from light): In 96-well culture plates, according to the sensitivity of different cells to different drugs, the highest concentration was selected as 10 μM, and 9 concentrations were obtained by serial dilution in a ratio of 1:3.5 μL of compound was added to each well and 2-3 replicate wells were made for per concentration. After the compound was added, 96-well plates were incubated in a 5% CO2 incubator at 37° C. After 72 hours of action by using 9 different concentrations of the drug with 3 fixed doses of Compound 5, the combination effect of Compound 5 and the drug was tested. Reading: At the end of the culture, the old solution was removed from the well to be tested, and 100 μl/well CCK-8 test solution (containing 10% CCK-8, 5% FBS in the corresponding medium) was added. The plates were continuously incubated at 37° C. for 2-4 hours in a CO2 incubator. The OD values were measured using a microplate reader (SpectraMax Plus 384, Molecular Devices, LLC., US) under A450 nm. […] (O.D. of test well−O.D. of blank control well)/(O.D. of cell control well−O.D. of blank control well)×100%. IC50 values were calculated using Graphpad Prism 6.0 software for nonlinear regression data analysis method."}, "[4]": {"details": "single EGFR inhibitor, read-out: Compound B IC50"}}, "note": "Like-named read-outs stand apart in the source and are kept apart here. Marks after values point to notes of the source that are not given here."}
{"smiles": "Cc1cc(Nc2ncc(Cl)c(Nc3ccccc3S(=O)(=O)C(C)C)n2)c(OC(C)C)cc1C1=CCN(C2CCOCC2)CC1", "note": "[Compound 5, 5-chloro-N^2-(2-isopropoxy-5-methyl-4-(1-(tetrahydro-2H-pyran-4-yl)-1,2,3,6-tetrahydropyridin-4-yl)phenyl)-N^4-(2-(isopropylsulfonyl)phenyl)pyrimidine-2,4-diamine]", "values": [{"measurement": "RTV on Day 11 after administration (mean ± standard error)", "setting": "[1]", "value": "8.2 ± 0.5"}, {"measurement": "T/C on Day 11 after administration (%)", "setting": "[1]", "value": 113.8, "unit": "%"}, {"measurement": "RTV on Day 15 after administration (mean ± standard error)", "setting": "[1]", "value": "10.3 ± 1.1"}, {"measurement": "T/C on Day 15 after administration (%)", "setting": "[1]", "value": 95.6, "unit": "%"}, {"measurement": "RTV on Day 15 after administration (mean ± standard error)", "setting": "[2]", "value": "13.8 ± 1.8"}, {"measurement": "T/C on Day 15 after administration (%)", "setting": "[2]", "value": 66.0, "unit": "%"}, {"measurement": "RTV on Day 21 after administration (mean ± standard error)", "setting": "[3]", "value": "12.8 ± 1.5"}, {"measurement": "T/C on Day 21 after administration (%)", "setting": "[3]", "value": 80, "unit": "%"}, {"measurement": "IC50", "setting": "NCI-H1975 tumor cells; single drug, read-out: Compound A IC50", "value": "3550 ± 1110", "unit": "nM"}]}
{"smiles": "C=CC(=O)Nc1cc(Nc2nccc(-c3cn(C)c4ccccc34)n2)c(OC)cc1N(C)CCN(C)C", "note": "[AZD9291, osimertinib]", "values": [{"measurement": "RTV on Day 11 after administration (mean ± standard error)", "setting": "[1]", "value": "1.6 ± 0.3"}, {"measurement": "T/C on Day 11 after administration (%)", "setting": "[1]", "value": "1.6** %"}, {"measurement": "RTV on Day 15 after administration (mean ± standard error)", "setting": "[1]", "value": "1.8 ± 0.2"}, {"measurement": "T/C on Day 15 after administration (%)", "setting": "[1]", "value": 16.8, "unit": "%"}, {"measurement": "RTV on Day 15 after administration (mean ± standard error)", "setting": "[2]", "value": "1.4 ± 0.2"}, {"measurement": "T/C on Day 15 after administration (%)", "setting": "[2]", "value": 6, "unit": "%"}, {"measurement": "tumor after discontinuation of administration", "setting": "[2]; after discontinuation of administration", "value": "tumor rebound was gradually observed"}, {"measurement": "IC50", "setting": "NCI-H1975 tumor cells; [4]", "value": 410, "unit": "nM"}]}
{"smiles": "CN(C)C/C=C/C(=O)Nc1cc2c(Nc3ccc(F)c(Cl)c3)ncnc2cc1O[C@H]1CCOC1", "note": "[afatinib]", "values": [{"measurement": "RTV on Day 15 after administration (mean ± standard error)", "setting": "[2]", "value": "15.5 ± 1.5"}, {"measurement": "T/C on Day 15 after administration (%)", "setting": "[2]", "value": 74, "unit": "%"}, {"measurement": "T/C on Day 15 after administration (%)", "setting": "[2]; listed as Afatinib", "value": 74.0, "unit": "%"}, {"measurement": "IC50", "setting": "NCI-H1975 tumor cells; [4]", "value": 337, "unit": "nM"}]}
{"smiles": "C=CC(=O)Nc1cccc(Oc2nc(Nc3ccc(N4CCN(C)CC4)c(F)c3)nc3[nH]ccc23)c1", "note": "[Avitinib]", "values": [{"measurement": "RTV on Day 11 after administration (mean ± standard error)", "setting": "[1]", "value": "5.9 ± 0.4"}, {"measurement": "T/C on Day 11 after administration (%)", "setting": "[1]", "value": 82.0, "unit": "%"}, {"measurement": "RTV on Day 15 after administration (mean ± standard error)", "setting": "[1]", "value": "7.8 ± 0.7"}, {"measurement": "T/C on Day 15 after administration (%)", "setting": "[1]", "value": 72.4, "unit": "%"}, {"measurement": "RTV on Day 21 after administration (mean ± standard error)", "setting": "[3]", "value": "13.29 ± 2.65"}, {"measurement": "T/C on Day 21 after administration (%)", "setting": "[3]", "value": 83.1, "unit": "%"}]}
{"smiles": "C[C@@H]1CN(C(=O)c2ccc(NC(=O)c3cc(O[C@H](C)c4c(Cl)ccc(F)c4Cl)c(N)nn3)cc2)C[C@H](C)N1", "note": "[Ensartinib]", "values": [{"measurement": "RTV on Day 21 after administration (mean ± standard error)", "setting": "[3]", "value": "9.5 ± 1.1"}, {"measurement": "T/C on Day 21 after administration (%)", "setting": "[3]", "value": 61.3, "unit": "%"}]}
